Common to all, as to type: cell-based
The subject of experiment [1] is S. pneumoniae SV1 SP-3. The experiment can be described thus: in vitro antibacterial activity (MIC), S. pneumoniae. The following applies: Streptococcus pneumoniae, SV1SP3. The source says:
(§1) The in vitro antibacterial activity of the compounds of the present invention may be assessed by following procedures recommended in (1) National Committee for Clinical Laboratory Standards (January 2003), Methods for dilution antimicrobial tests for bacteria that grow aerobically, Approved Standard (6th ed), M7-A6, NCCLS, Wayne, Pa.; (2) National Committee for Clinical Laboratory Standards (March 2001), Methods for antimicrobial susceptibility testing of anaerobic bacteria, Approved Standard (5th ed), M11-A4, NCCLS, Wayne, Pa.; (3) National Committee for Clinical Laboratory Standards (Jan. 2003), MIC testing supplemental tables, M100-S13 (for use with M7-A6), NCCLS, Wayne, Pa.; and (4) Murray P R, Baron E J, Jorgensen J H, et al. Manual of Clinical Microbiology (8th ed) Washington, D.C.: American Society for Microbiology Press, 2003. The MIC value is the lowest concentration of drug which prevented macroscopically visible growth under the conditions of the test.

The subject of experiment [2] is S. aureus UC-76 SA-1. The experiment can be described thus: in vitro antibacterial activity (MIC), S. aureus. The following applies: for MIC90: Staphylococcus aureus, UC76, S. aureus UC-76 SA-1.
Text: as §1

Experiment [3] concerns E. faecalis MGH-2 EF 1-1. The experiment can be described thus: in vitro antibacterial activity (MIC), E. faecalis. The following applies: Enterococcus faecalis, MGH2EF11.
Text: as §1

Converted amounts (≈) assume the structure as drawn.

For `CCC(=O)NC[C@H]1CN(c2ccc3c(c2)CC(=O)N3CCF)C(=O)O1` [Example 10, (S)—N-{3-[1-(2-fluoro-ethyl)-2-oxo-2,3-dihydro-1H-indol-5-yl]-2-oxo-oxazolidin-5-ylmethyl}-propionamide], the MIC90 in experiment [1] was found to be 2 µg/mL (≈ 5.72 µM); in experiment [2], 8 µg/mL (≈ 22.9 µM); in experiment [3] it was 2 µg/mL (≈ 5.72 µM). Also, in experiment [2] (S. aureus UC-76 SA-1), the “in vitro antibacterial activity MIC90” value stood at 4 µg/mL.
Take `CC(=O)NC[C@H]1CN(c2cc(F)c3c(c2)CC(=O)N3C(C)C)C(=O)O1` [Example 15, (S)—N-[3-(7-fluoro-1-isopropyl-2-oxo-2,3-dihydro-1H-indol-5-yl)-2-oxo-oxazolidin-5-ylmethyl]-acetamide]: the figures for the MIC90 in experiment [1], in experiment [2] and in experiment [3] were 2 µg/mL (≈ 5.72 µM), 4 µg/mL (≈ 11.4 µM) and 2 µg/mL (≈ 5.72 µM), respectively.

Source of the values: US20080262056A1, “Oxindole Oxazolidinones as Antibacterial Agents” (Pfizer Inc, priority 2004, published 2008).
